For this data set the following is noted: for aqueous solubility: pH 6.8.

Experimental findings from the Biogen ADME set (Fang et al. 2023) are described below.

Structures are written as SMILES. Converted amounts (≈) assume the structure as drawn.

One may read the aqueous solubility as how much of the substance goes into solution per volume. Low values mean little dissolved substance, high ones much dissolved substance. Turning to `CC(=O)NCC1CCN(C(=O)c2cncn2-c2ccc(F)cc2)CC1`, the MDR1-MDCK efflux ratio is 59.5; the intrinsic clearance, human liver microsomes was no more than 4.74 mL/min/kg; the intrinsic clearance, rat liver microsomes stood at 29.3 mL/min/kg; the aqueous solubility is 46.3 µg/mL (≈ 134 µM).
The corresponding values for `O=C(NCc1ccc(F)cc1)c1ccccn1` are 0.543, no more than 4.74 mL/min/kg, 21.1 mL/min/kg and 34.8 µg/mL (≈ 151 µM).
On to `CCc1ccccc1NC(=O)c1cc(C)nc2onc(C)c12`, for which the MDR1-MDCK efflux ratio was found to be 0.67; the intrinsic clearance, human liver microsomes came out at 51.8 mL/min/kg; the intrinsic clearance, rat liver microsomes was determined as 53.1 mL/min/kg; the aqueous solubility was determined as 13.3 µg/mL (≈ 45 µM).
The corresponding values for `c1ccc2c(c1)CN(c1cnc3ccccc3n1)CCN2` are 0.54, 93.9 mL/min/kg, 628 mL/min/kg and 25.1 µg/mL (≈ 90.8 µM).
Consider `COCCc1nc(-c2cnc(C3CC3)nc2)n(Cc2ccc(F)cc2)n1`, for which the MDR1-MDCK efflux ratio was 1.51; the intrinsic clearance, human liver microsomes is 8.05 mL/min/kg; the intrinsic clearance, rat liver microsomes turned out to be 1030 mL/min/kg; the aqueous solubility came out at 34.1 µg/mL (≈ 96.4 µM).
In turn, `C#CCNC(=O)c1ccc(OC)c(OC)c1` gave an aqueous solubility of 26.9 µg/mL (≈ 123 µM).
Take `COc1ccc2c(c1)C(=O)N(c1ccccc1OC)C(=O)C2`: the aqueous solubility was 40.3 µg/mL (≈ 135 µM).
Take `CN1CCN(c2ncncc2-c2nc(-c3ccccc3)no2)CC1`: the MDR1-MDCK efflux ratio was found to be 0.527; the intrinsic clearance, human liver microsomes stood at 28.1 mL/min/kg; the intrinsic clearance, rat liver microsomes came out at 484 mL/min/kg; the aqueous solubility was 56.4 µg/mL (≈ 175 µM).
The corresponding values for `O=C(NC1=NS(=O)(=O)c2ccccc21)c1cc(-c2ccc(F)cc2)no1` are 2.56, 90.3 mL/min/kg, no more than 10.7 mL/min/kg and 31.8 µg/mL (≈ 85.5 µM).
Regarding `COc1cccc(CN2CCN(C(=O)Cc3ccc(C)cc3)[C@@H](C)C2)c1`, the MDR1-MDCK efflux ratio worked out at 0.739; the intrinsic clearance, human liver microsomes came to 230 mL/min/kg; the intrinsic clearance, rat liver microsomes was 988 mL/min/kg; the aqueous solubility is 44 µg/mL (≈ 125 µM).
Compound `N#Cc1nc(-c2ccccc2)oc1NCc1ccc2c(c1)OCO2` gave an intrinsic clearance, human liver microsomes of 208 mL/min/kg and an intrinsic clearance, rat liver microsomes of 707 mL/min/kg.
As for `CN(CCc1ccccn1)C(=O)Nc1nncs1`, the MDR1-MDCK efflux ratio is 1.63; the intrinsic clearance, human liver microsomes was no more than 4.74 mL/min/kg; the intrinsic clearance, rat liver microsomes is no more than 10.7 mL/min/kg; the aqueous solubility was 45.6 µg/mL (≈ 173 µM).
For the compound `Cc1ccc(C)c(S(=O)(=O)N2CCCN(CCn3cccn3)CC2)c1`, the MDR1-MDCK efflux ratio was 1.14; the intrinsic clearance, human liver microsomes is 207 mL/min/kg; the intrinsic clearance, rat liver microsomes came to 2010 mL/min/kg; the aqueous solubility was determined as 30.5 µg/mL (≈ 84.1 µM).
As to `O=C(CCc1cc2ccccc2o1)N1CCN(c2cnccn2)CC1`, the MDR1-MDCK efflux ratio turned out to be 0.629; the intrinsic clearance, human liver microsomes stood at 69.6 mL/min/kg; the intrinsic clearance, rat liver microsomes was 497 mL/min/kg; the aqueous solubility came out at 55.5 µg/mL (≈ 165 µM).
`Cn1ncc2c(N3CCN(c4ccc(Cl)c(Cl)c4)CC3)ncnc21` showed an aqueous solubility of 0.13 µg/mL (≈ 0.358 µM).
Turning to `CON(C)C(=O)CCc1c(C)nn(C)c1C`, the MDR1-MDCK efflux ratio turned out to be 1.33; the intrinsic clearance, human liver microsomes was no more than 4.74 mL/min/kg; the intrinsic clearance, rat liver microsomes came to 28.3 mL/min/kg; the aqueous solubility was found to be 34.2 µg/mL (≈ 152 µM).
As for `O=C(NCCc1ccc(O)c(O)c1)Nc1ccccn1`, the intrinsic clearance, human liver microsomes is no more than 4.74 mL/min/kg; the intrinsic clearance, rat liver microsomes is 149 mL/min/kg; the aqueous solubility was found to be 47.5 µg/mL (≈ 174 µM).
As for `Cc1ccc(F)cc1S(=O)(=O)Nc1ccc(C(=O)N2CCCC2)cc1`, the MDR1-MDCK efflux ratio was 22.3; the intrinsic clearance, human liver microsomes was 127 mL/min/kg; the intrinsic clearance, rat liver microsomes amounted to 6150 mL/min/kg.
In the case of `CCc1cc(NS(C)(=O)=O)n(C)n1`, the MDR1-MDCK efflux ratio was 2.54; the intrinsic clearance, human liver microsomes is no more than 4.74 mL/min/kg; the intrinsic clearance, rat liver microsomes was no more than 10.7 mL/min/kg.
